Results: paper PMC11233931, “Remodeling tumor‐associated macrophage for anti‐cancer effects by rational design of irreversible inhibition of mitogen‐activated protein kinase‐activated protein kinase 2” (MedComm, 2024)

Columns and labels:
Test in all cases: Eurofins kinase selectivity profile against 380 other human recombinant kinases (Table S2)
Assay type in all cases: biochemical
[1] = biological target: T1, 380 human recombinant protein kinases (Homo sapiens, UniProt P15056, V600E); details: B-Raf(V599E)(h), read-out: Inhibition rate
T1 construct: purchased Eurofins (Celle Lévescault)
In short: (§1)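 Off-target profiling: one compound assayed by a commercial provider over 380 recombinant human protein kinases at various concentrations.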

[2] = biological target: T2, 380 human recombinant protein kinases (Homo sapiens, UniProt Q9UKI8); details: TLK1(h), read-out: Inhibition rate (%)
T2 construct: purchased Eurofins (Celle Lévescault)
T2 sequence (Q9UKI8 1-766): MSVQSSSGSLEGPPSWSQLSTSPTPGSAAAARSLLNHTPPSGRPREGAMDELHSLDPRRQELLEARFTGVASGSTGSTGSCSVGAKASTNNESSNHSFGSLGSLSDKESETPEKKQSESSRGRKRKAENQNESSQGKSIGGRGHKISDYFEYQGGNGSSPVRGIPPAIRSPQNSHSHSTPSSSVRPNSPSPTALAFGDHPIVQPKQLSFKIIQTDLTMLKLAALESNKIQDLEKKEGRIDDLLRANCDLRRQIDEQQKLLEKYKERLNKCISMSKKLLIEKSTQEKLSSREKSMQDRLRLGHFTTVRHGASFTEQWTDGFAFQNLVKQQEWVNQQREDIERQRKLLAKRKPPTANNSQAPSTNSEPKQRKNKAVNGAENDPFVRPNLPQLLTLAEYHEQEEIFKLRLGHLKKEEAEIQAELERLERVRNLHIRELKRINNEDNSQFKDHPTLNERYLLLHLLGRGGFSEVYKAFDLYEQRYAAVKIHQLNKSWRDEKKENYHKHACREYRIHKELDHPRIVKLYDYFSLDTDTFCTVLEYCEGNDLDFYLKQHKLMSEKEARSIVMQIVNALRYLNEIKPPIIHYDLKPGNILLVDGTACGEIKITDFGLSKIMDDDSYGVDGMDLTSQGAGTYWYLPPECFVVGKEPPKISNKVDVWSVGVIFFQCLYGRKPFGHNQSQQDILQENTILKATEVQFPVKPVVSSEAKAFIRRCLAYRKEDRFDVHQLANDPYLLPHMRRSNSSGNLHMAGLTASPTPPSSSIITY
In short: as §1

[3] = biological target: T3, 380 human recombinant protein kinases (Homo sapiens, UniProt Q9UEW8); details: STK39(h), read-out: Inhibition rate (%)
T3 construct: purchased Eurofins (Celle Lévescault)
In short: as §1

[4] = biological target: T4, 380 human recombinant protein kinases (Homo sapiens, UniProt P52333); details: JAK3(h), read-out: Inhibition rate
T4 construct: purchased Eurofins (Celle Lévescault)
T4 sequence (P52333 1-1124): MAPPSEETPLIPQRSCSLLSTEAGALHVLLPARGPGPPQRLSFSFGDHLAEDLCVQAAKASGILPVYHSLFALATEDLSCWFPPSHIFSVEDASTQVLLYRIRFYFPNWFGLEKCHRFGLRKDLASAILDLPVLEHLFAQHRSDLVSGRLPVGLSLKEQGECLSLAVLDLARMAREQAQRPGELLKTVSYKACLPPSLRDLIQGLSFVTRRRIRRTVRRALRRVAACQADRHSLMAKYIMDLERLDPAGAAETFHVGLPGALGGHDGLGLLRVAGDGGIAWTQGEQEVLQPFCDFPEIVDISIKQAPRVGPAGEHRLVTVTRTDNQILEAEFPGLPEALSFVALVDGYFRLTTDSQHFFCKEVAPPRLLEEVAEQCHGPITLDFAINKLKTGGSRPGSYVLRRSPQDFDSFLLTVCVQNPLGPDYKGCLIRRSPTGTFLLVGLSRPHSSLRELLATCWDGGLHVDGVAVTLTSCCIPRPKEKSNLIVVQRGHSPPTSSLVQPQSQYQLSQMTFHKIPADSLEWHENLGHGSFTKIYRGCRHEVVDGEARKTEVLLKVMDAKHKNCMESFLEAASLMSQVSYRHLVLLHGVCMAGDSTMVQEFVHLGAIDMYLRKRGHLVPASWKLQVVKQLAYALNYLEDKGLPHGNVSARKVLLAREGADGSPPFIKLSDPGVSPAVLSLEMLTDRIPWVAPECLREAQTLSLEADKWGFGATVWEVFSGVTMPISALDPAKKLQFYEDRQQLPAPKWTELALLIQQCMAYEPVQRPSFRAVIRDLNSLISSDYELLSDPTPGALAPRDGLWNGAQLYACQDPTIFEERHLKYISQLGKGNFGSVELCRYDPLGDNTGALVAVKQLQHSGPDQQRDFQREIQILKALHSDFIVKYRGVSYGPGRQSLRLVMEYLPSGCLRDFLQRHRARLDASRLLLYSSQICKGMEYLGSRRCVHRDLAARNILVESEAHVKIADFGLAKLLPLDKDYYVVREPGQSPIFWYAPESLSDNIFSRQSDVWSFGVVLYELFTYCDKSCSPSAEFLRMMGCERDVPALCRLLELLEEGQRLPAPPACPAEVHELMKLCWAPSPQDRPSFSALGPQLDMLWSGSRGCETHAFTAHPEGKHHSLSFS
In short: as §1

[5] = biological target: T5, 380 human recombinant protein kinases (Homo sapiens, UniProt P19784); details: CK2α2(h), read-out: Inhibition rate
T5 construct: purchased Eurofins (Celle Lévescault)
In short: as §1

[6] = biological target: T6, 380 human recombinant protein kinases (Homo sapiens, UniProt Q9H3Y6); details: SRMS(h), read-out: Inhibition rate (%)
T6 construct: purchased Eurofins (Celle Lévescault)
In short: as §1

[7] = biological target: T7, 380 human recombinant protein kinases (Homo sapiens, UniProt Q9Y3S1); details: WNK2(h), read-out: Inhibition rate (%)
T7 construct: purchased Eurofins (Celle Lévescault)
In short: as §1

T7 sequence (Q9Y3S1 whole entry): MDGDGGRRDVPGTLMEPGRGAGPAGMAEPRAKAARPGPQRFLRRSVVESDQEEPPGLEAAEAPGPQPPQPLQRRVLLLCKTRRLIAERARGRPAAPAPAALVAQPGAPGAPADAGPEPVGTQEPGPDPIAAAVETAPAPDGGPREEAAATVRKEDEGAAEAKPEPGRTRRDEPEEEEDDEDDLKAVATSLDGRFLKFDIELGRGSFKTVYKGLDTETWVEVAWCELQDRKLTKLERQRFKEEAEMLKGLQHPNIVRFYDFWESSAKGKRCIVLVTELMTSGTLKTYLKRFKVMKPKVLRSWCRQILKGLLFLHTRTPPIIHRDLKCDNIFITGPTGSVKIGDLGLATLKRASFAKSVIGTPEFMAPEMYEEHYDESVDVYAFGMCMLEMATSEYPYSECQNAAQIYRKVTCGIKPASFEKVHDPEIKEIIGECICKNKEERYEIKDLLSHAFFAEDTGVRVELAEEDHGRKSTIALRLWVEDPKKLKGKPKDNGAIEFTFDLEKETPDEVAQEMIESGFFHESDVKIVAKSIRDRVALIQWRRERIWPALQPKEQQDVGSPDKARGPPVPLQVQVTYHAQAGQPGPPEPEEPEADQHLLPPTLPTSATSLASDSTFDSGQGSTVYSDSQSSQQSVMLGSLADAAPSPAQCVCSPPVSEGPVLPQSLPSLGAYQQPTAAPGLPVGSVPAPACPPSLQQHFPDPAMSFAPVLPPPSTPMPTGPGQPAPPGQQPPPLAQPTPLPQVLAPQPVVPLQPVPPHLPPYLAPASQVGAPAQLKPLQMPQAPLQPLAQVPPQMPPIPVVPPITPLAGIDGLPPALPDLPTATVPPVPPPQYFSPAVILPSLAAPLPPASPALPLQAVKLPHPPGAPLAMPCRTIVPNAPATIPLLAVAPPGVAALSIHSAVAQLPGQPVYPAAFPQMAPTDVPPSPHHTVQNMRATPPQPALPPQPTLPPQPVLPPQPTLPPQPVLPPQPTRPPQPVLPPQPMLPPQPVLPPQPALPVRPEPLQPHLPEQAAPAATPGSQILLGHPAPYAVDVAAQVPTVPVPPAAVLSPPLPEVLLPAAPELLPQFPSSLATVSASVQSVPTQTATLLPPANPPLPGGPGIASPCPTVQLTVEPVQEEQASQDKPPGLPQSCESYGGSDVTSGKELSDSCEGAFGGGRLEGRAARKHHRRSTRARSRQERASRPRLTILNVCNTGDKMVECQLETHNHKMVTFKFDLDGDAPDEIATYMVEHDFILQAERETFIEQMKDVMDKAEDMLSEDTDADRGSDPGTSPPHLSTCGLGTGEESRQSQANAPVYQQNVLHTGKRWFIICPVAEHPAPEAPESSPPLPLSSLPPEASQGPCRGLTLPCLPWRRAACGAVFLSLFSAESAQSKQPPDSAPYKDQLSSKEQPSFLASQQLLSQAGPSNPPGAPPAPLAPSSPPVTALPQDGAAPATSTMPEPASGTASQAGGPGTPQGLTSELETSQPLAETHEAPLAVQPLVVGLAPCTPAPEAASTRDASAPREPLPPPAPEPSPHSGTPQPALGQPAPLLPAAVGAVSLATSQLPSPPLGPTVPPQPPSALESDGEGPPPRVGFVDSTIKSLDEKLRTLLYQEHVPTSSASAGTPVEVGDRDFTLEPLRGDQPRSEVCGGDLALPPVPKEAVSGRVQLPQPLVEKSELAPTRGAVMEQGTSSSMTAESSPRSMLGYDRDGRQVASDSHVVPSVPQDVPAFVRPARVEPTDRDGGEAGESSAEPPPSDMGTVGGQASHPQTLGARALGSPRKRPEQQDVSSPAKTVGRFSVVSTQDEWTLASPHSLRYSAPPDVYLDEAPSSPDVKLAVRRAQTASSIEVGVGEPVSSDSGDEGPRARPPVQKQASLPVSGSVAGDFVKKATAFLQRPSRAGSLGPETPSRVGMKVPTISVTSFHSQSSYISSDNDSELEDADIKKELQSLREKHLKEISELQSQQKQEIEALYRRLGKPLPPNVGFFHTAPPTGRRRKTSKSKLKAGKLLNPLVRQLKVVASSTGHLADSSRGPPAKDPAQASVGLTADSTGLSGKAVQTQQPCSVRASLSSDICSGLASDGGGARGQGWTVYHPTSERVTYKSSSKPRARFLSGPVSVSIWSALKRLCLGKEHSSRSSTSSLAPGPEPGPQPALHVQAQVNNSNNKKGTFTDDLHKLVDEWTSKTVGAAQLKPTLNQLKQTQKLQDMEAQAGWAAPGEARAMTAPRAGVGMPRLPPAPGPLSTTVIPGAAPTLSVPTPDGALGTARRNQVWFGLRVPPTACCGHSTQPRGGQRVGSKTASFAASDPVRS
T1 sequence (P15056 whole entry V600E): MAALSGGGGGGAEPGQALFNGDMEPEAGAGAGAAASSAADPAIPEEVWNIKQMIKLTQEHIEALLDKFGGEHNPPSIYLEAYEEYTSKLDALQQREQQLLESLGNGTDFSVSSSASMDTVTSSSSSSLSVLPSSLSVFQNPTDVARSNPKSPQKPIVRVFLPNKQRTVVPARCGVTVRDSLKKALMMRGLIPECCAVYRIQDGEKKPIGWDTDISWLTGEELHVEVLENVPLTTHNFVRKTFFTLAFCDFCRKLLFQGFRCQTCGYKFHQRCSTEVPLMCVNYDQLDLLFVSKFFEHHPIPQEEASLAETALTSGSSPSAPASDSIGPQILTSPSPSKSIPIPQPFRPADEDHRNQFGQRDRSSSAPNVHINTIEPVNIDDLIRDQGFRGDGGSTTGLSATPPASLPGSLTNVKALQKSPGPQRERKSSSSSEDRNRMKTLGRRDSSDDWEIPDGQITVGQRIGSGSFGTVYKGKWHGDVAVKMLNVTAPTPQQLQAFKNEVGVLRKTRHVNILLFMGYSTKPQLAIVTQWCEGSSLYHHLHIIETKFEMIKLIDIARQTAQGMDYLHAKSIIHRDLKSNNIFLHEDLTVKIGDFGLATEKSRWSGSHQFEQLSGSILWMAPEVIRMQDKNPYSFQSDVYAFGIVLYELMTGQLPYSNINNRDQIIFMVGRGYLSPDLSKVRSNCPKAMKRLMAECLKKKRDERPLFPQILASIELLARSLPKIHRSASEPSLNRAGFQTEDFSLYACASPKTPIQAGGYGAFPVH
T5 sequence (P19784 whole entry): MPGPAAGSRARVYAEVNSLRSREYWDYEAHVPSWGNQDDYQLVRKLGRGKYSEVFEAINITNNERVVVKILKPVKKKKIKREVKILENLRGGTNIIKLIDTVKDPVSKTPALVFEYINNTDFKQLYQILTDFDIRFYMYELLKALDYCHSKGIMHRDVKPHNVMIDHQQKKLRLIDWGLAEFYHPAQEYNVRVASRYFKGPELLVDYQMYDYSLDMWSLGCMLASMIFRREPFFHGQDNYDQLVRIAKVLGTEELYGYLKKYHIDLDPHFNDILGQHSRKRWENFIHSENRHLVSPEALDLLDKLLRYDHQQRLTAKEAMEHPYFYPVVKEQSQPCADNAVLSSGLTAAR
T6 sequence (Q9H3Y6 whole entry): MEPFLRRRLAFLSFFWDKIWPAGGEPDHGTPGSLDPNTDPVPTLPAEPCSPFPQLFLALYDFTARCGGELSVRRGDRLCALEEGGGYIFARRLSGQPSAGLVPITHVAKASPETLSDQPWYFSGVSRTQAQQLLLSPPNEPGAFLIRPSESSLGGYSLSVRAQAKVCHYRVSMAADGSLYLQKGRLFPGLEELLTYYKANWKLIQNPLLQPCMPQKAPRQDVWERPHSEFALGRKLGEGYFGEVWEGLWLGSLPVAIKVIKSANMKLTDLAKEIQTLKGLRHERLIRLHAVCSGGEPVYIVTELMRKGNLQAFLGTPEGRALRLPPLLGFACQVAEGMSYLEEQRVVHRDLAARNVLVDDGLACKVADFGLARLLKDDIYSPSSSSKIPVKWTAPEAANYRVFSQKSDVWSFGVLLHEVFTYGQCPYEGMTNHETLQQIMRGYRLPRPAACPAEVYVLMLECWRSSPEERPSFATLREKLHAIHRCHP

C=CC(=O)Nc1cc(-c2cc(-c3cc4c([nH]3)CCNC4=O)ccn2)ccc1OC(F)(F)F [compound 11]
inhibition at 0.01 µM ([1]; 10 nM): -6%
inhibition at 0.1 µM ([1]; 100 nM): -14%
inhibition at 1 µM ([1]; 1000 nM): -2%
inhibition at 0.01 µM ([2]; 10 nM): 13%
inhibition at 0.1 µM ([2]; 100 nM): 0%
inhibition at 1 µM ([2]; 1000 nM): -5%
inhibition at 0.01 µM ([3]; 10 nM): -10%
inhibition at 0.1 µM ([3]; 100 nM): -4%
inhibition at 1 µM ([3]; 1000 nM): 5%
inhibition at 0.01 µM ([4]; 10 nM): 8%
inhibition at 0.1 µM ([4]; 100 nM): 5%
inhibition at 1 µM ([4]; 1000 nM): 12%
inhibition at 0.01 µM ([5]; 10 nM): 10%
inhibition at 0.1 µM ([5]; 100 nM): 14%
inhibition at 1 µM ([5]; 1000 nM): 26%
inhibition at 0.01 µM ([6]; 10 nM): 1%
inhibition at 0.1 µM ([6]; 100 nM): 10%
inhibition at 1 µM ([6]; 1000 nM): 7%
inhibition at 0.01 µM ([7]; 10 nM): 11%
inhibition at 0.1 µM ([7]; 100 nM): 19%
inhibition at 1 µM ([7]; 1000 nM): 17%
